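Growth conditions: 96-well plates. Treatment: test compound, 48 hours, 5 concentrations. Analysis: linear interpolation between bracketing concentrations; unreached endpoints set to highest concentration. GI50 is the concentration that inhibits growth by half. TGI denotes the concentration required for complete inhibition of growth.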
Assays:
Experiment in all cases: NCI anticancer screen, dose series, 48 h
[1] = tested on: UO-31 renal
[2] = tested on: SK-MEL-2 melanoma
[3] = tested on: K-562 leukemia
[4] = tested on: HOP-62 NSCLC
[5] = tested on: UACC-257 melanoma
[6] = tested on: MOLT-4 leukemia
[7] = tested on: COLO 205 colon
[8] = tested on: SK-MEL-28 melanoma
[9] = tested on: EKVX NSCLC
[10] = tested on: SF-295 CNS

Row | Structure (SMILES) | TGI [1] [µM] | TGI [2] [µM] | TGI [3] [µM] | TGI [4] [µM] | TGI [5] [µM] | TGI [6] [µM] | TGI [7] [µM] | TGI [8] [µM] | TGI [9] [µM] | TGI [10] [µM] | GI50 [1] [µM] | GI50 [2] [µM] | GI50 [3] [µM] | GI50 [4] [µM] | GI50 [5] [µM] | GI50 [6] [µM] | GI50 [7] [µM] | GI50 [8] [µM] | GI50 [9] [µM] | GI50 [10] [µM]
1 | CC(C)(C)[Si](OC1CC(n2cnc3c(N)ncnc32)OC1CO)(c1ccccc1)c1ccccc1 (stereo not given) | 68.1 | 36.1 | > 100 | 45.3 | > 100 | > 100 | 88.1 | 41.1 | 41.7 | 30.5 | – | – | – | – | – | – | – | – | – | –
2 | O=C1C(Cl)N(c2ccc(Cl)cc2)C1c1c[nH]c2ccccc12 (stereo not given) | 35 | 29.3 | 73.3 | 33.7 | 31.6 | 70 | 47.8 | 96.5 | 32.5 | 31.5 | – | – | – | – | – | – | – | – | – | –
3 | COc1ccc(N2C(=O)/C(=C(\C)c3cc4ccccc4oc3=O)N=C2c2cc([N+](=O)[O-])ccc2Cl)cc1 | > 100 | > 100 | > 100 | > 100 | > 100 | > 100 | > 100 | > 100 | > 100 | > 100 | – | – | – | – | – | – | – | – | – | –
4 | O=C(O)c1ccc(Nc2c3ccccc3nc3ccccc23)cc1 | > 100 | > 100 | > 100 | > 100 | > 100 | > 83.9 | > 100 | > 100 | > 100 | > 100 | – | – | – | – | – | – | – | – | – | –
5 | CN(C)CCCNC(=O)c1cc2[nH]c3c(cnc4ccc([N+](=O)[O-])cc43)c(=O)c2n1C | 32.1 | > 100 | 33.1 | 30.9 | 39.7 | 33.9 | 30.1 | 33.9 | 52.3 | 51.4 | 17 | > 100 | 15.8 | 17.2 | 21.2 | 13.5 | 16.5 | 19.7 | 23.5 | 26.9
6 | Cc1cc(C)n(C(=C(C(Cl)=C(Cl)Cl)[N+](=O)[O-])n2nc(C)cc2C)n1 | 11.3 | 4.18 | 5 | 19.5 | 11.5 | 5 | 3.76 | 19.7 | 6.27 | 14.8 | – | – | – | – | – | – | – | – | – | –

Reference: PubChem BioAssay (NCI)
